Reference: patent US7521444B2, “Compounds for the treatment of hepatitis C” (Bristol-Myers Squibb Company, priority 2007, dated 2009)

Assays:
[1] = target: T1, HCV NS5B (Hepatitis C virus genotype 1b, UniProt Q9WMX2); experiment: HCV NS5B RdRp enzyme assay (standard or modified); type: biochemical; conditions: HCV NS5B RdRp genotype 1b enzyme; standard or modified assay not stated
T1 construct: The protein was expressed with an 18 amino acid C-terminal truncation to enhance the solubility; made in house; host or cells: E. coli BL21(DE3), pET21a
T1 sequence (Q9WMX2 2420-2992): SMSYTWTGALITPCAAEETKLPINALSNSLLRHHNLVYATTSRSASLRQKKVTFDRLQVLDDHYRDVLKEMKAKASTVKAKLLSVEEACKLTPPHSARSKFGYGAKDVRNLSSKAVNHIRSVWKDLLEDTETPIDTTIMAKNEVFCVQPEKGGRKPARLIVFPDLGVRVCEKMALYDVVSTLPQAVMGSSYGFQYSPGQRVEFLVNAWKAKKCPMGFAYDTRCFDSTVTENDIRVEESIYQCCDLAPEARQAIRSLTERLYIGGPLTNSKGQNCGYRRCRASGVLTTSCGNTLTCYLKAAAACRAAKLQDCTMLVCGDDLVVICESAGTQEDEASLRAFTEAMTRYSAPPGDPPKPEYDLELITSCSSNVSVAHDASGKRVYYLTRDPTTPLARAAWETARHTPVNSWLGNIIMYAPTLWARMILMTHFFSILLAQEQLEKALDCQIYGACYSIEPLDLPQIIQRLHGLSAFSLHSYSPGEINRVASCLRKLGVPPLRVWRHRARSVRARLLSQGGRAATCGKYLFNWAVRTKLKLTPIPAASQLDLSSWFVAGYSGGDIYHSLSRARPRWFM
Description: HCV NS5B RdRp cloning, expression, and purification. The cDNA encoding the NS5B protein of HCV, genotype 1b, was cloned into the pET21a expression vector. The protein was expressed with an 18 amino acid C-terminal truncation to enhance the solubility. The E. coli competent cell line BL21(DE3) was used for expression of the protein. Cultures were grown at 37° C. for ˜4 hours until the cultures reached an optical density of 2.0 at 600 nm. The cultures were cooled to 20° C. and induced with 1 mM IPTG. Fresh ampicillin was added to a final concentration of 50 μg/ml and the cells were grown overnight at 20° C.
Cell pellets (3 L) were lysed for purification to yield 15-24 mgs of purified NS5B. The lysis buffer consisted of 20 mM Tris-HCl, pH 7.4, 500 mM NaCl, 0.5% triton X-100, 1 mM DTT, 1 mM EDTA, 20% glycerol, 0.5 mg/ml lysozyme, 10 mM MgCl2, 15 ug/ml deoxyribonuclease I, and Complete TM protease inhibitor tablets (Roche). After addition of the lysis buffer, frozen cell pellets were resuspended using a tissue homogenizer. To reduce the viscosity of the sample, aliquots of the lysate were sonicated on ice using a microtip attached to a Branson sonicator. The sonicated lysate was centrifuged at 100,000×g for 1 hr at 4° C. and filtered through a 0.2 μm filter unit (Corning).
The protein was purified using two sequential chromatography steps: Heparin sepharose CL-6B and polyU sepharose 4B (Pharmacia). The chromatography buffers were identical to the lysis buffer but contained no lysozyme, deoxyribonuclease I, MgCl2 or protease inhibitor and the NaCl concentration of the buffer was adjusted according to the requirements for charging the protein onto the column. Each column was eluted with a NaCl gradient which varied in length from 5-50 column volumes depending on the column type. After the final chromatography step, the resulting purity of the enzyme is >90% based on SDS-PAGE analysis. The enzyme was aliquoted and stored at −80° C.
Standard HCV NS5B RdRp enzyme assay. HCV RdRp genotype 1b assays were run in a final volume of 60 μl in 96 well plates (Corning 3600). The assay buffer is composed of 20 mM Hepes, pH 7.5, 2.5 mM KCl, 2.5 mM MgCl2, 1 mM DTT, 1.6 U RNAse inhibitor (Promega N2515), 0.01 mg/ml BSA (Sigma B6917), and 2% glycerol. All compounds were serially diluted (3-fold) in DMSO and diluted further in water such that the final concentration of DMSO in the assay was 2%. HCV RdRp genotype 1b enzyme was used at a final concentration of 28 nM. A polyA template was used at 6 nM, and a biotinylated oligo-dT12 primer was used at 180 nM final concentration. Template was obtained commercially (Amersham 27-4110). Biotinylated primer was prepared by Sigma Genosys. 3H-UTP was used at 0.6 μCi (0.29 μM total UTP). Reactions were initiated by the addition of enzyme, incubated at 30° C. for 60 min, and stopped by adding 25 μl of 50 mM EDTA containing SPA beads (4 μg/μl, Amersham RPNQ 0007). Plates were read on a Packard Top Count NXT after >1 hr incubation at room temperature.
Modified HCV NS5B RdRp enzyme assay. A modified enzyme assay was performed essentially as described for the standard enzyme assay except for the following: The biotinylated oligo dT12 primer was precaptured on streptavidin-coated SPA beads by mixing primer and beads in assay buffer and incubating at room temperature for one hour. Unbound primer was removed after centrifugation. The primer-bound beads were resuspended in 20 mM Hepes buffer, pH 7.5 and used in the assay at final concentrations of 20 nM primer and 0.67 μg/μl beads. Order of addition in the assay: enzyme (1.75 nM) was added to diluted compound followed by the addition of a mixture of template (0.36 nM), 3H-UTP (0.6 μCi, 0.29 μM), and primer-bound beads, to initiate the reaction; concentrations given are final. Reactions were allowed to proceed for 4 hours at 30° C.
IC50 values for compounds were determined using seven different [I]. […]

[2] = system: HCV replicon cells; experiment: HCV replicon FRET / luciferase assay; type: cell-based; conditions: Hepatitis C virus, 50% reduction in FRET or luciferase activity
Description: FRET Assay Preparation. The HCV FRET screening assay was performed in 96-well cell culture plates. The FRET peptide (Anaspec, Inc.) (Taliani et al., Anal. Biochem. 1996, 240, 60-67) contains a fluorescence donor, EDANS, near one end of the peptide and an acceptor, DABCYL, near the other end. The fluorescence of the peptide is quenched by […] resonance energy transfer (RET) between the donor and the acceptor, but as the NS3 protease cleaves the peptide the products are released from RET quenching and the fluorescence of the donor becomes apparent. The assay reagent was made as follows: 5× cell Luciferase cell culture lysis reagent from Promega (#E153A) diluted to 1× with dH2O, NaCl added to 150 mM final, the FRET peptide diluted to 20 μM final from a 2 mM stock.
To prepare plates, HCV replicon cells, with or without a Renilla luciferase reporter gene, were trypsinized and plated in a 96-well plate with titrated test compounds added in columns 3 through 12; columns 1 and 2 contained a control compound (HCV control inhibitor), and the bottom row contained cells with DMSO only. The plates were then placed in a CO2 incubator at 37° C.
Assays. Subsequent to addition of the test compounds described above (FRET Assay Preparation), at various times the plate was removed and Alamar blue solution (Trek Diagnostics, #00-100) was added to measure cellular toxicity. After reading in a Cytoflour 4000 instrument (PE Biosystems), plates were rinsed with PBS and then used for FRET assay by the addition of 30 ul of the FRET peptide assay reagent described above (FRET Assay Preparation) per well. The plate was then placed into the Cytoflour 4000 instrument which had been set to 340 excite/490 emission, automatic mode for up to 20 cycles and the plate read in a kinetic mode. Typically, the signal to noise using an endpoint analysis after the reads was at least three-fold. Alternatively, after Alamar blue reading, plates were rinsed with PBS, then used for luciferase assay using the Promega Dual-Glo Luciferase Assay System or the Promega EnduRen Live Cell Substrate assay.
Compound analysis was performed by quantification of the relative HCV replicon inhibition and the relative cytotoxicity values. To calculate cytoxicity values, the average Alamar Blue fluorescence signals from the control wells were set as 100% non-toxic. The individual signals in each of the compound test wells were then divided by the average control signal and multiplied by 100% to determine […]. To calculate the HCV replicon inhibition values, an average background value was obtained from the two wells containing the highest amount of HCV control inhibitor at the end of the assay period. These numbers were similar to those obtained from naïve Huh-7 cells. The background numbers were then subtracted from the average signal obtained from the control wells and this number was used as 100% activity. The individual signals in each of the compound test wells were then divided by the averaged control values after background subtraction and multiplied by 100% to determine percent activity. EC50 values were calculated as the concentration which caused a 50% reduction in FRET or luciferase activity. The two numbers generated for the compound plate, percent cytoxicity and percent activity, were used to determine compounds of interest for further analysis.

Row | Compound | IC50 [1] [nM] | EC50 [2] [nM]
1 | COc1ccc2c(c1)C1CC1(C(=O)N1CC3CN(C(=O)OC(C)(C)C)CC3C1)Cn1c-2c(C2CCCCC2)c2ccc(C(=O)NS(=O)(=O)N(C)C)cc21 (centres unmarked) | 4.58 to 500 | 4.58 to 500
2 | COc1ccc2c(c1)C1CC1(C(=O)N1CCCC3CN(Cc4ccccc4)CC31)Cn1c-2c(C2CCCCC2)c2ccc(C(=O)NS(=O)(=O)N(C)C)cc21 (centres unmarked) | 4.58 to 500 | 4.58 to 500
3 | COc1ccc2c(c1)C1CC1(C(=O)N1CC3CCCN(C)C3C1)Cn1c-2c(C2CCCCC2)c2ccc(C(=O)NS(=O)(=O)C3CC3)cc21 (centres unmarked) | 4.58 to 500 | 4.58 to 500
4 | COc1ccc2c(c1)C1CC1(C(=O)N1CC3CCCNC3C1)Cn1c-2c(C2CCCCC2)c2ccc(C(=O)NS(=O)(=O)C3CC3)cc21 (centres unmarked) | 4.58 to 500 | 4.58 to 500
5 | COc1ccc2c(c1)C1CC1(C(=O)N1CC3CCCN(C(C)=O)C3C1)Cn1c-2c(C2CCCCC2)c2ccc(C(=O)NS(=O)(=O)N(C)C)cc21 (centres unmarked) [drawing 34] | 4.58 to 500 | 4.58 to 500
6 | COc1ccc2c(c1)C1CC1(C(=O)N1CC3CN(C(=O)N4CCCC4)CC3C1)Cn1c-2c(C2CCCCC2)c2ccc(C(=O)NS(=O)(=O)N(C)C)cc21 (centres unmarked) | 4.58 to 500 | 4.58 to 500
7 | COc1ccc2c(c1)C1CC1(C(=O)N1CC3CNCC3C1)Cn1c-2c(C2CCCCC2)c2ccc(C(=O)NS(=O)(=O)C3CC3)cc21 (centres unmarked) | 4.58 to 500 | > 1000
8 | COc1ccc2c(c1)C1CC1(C(=O)N1CC3CCCN(C(=O)OC(C)(C)C)C3C1)Cn1c-2c(C2CCCCC2)c2ccc(C(=O)NS(=O)(=O)N(C)C)cc21 (centres unmarked) [drawing 24] | 4.58 to 500 | 4.58 to 500
9 | COc1ccc2c(c1)C1CC1(C(=O)N1CCN3CCCC3C1)Cn1c-2c(C2CCCCC2)c2ccc(C(=O)NS(N)(=O)=O)cc21 (centres unmarked) | 4.58 to 500 | 4.58 to 500
10 | CCS(=O)(=O)NC(=O)c1ccc2c(C3CCCCC3)c3n(c2c1)CC1(C(=O)N2CCN4CCCC4C2)CC1c1cc(OC)ccc1-3 (centres unmarked) | 4.58 to 500 | 4.58 to 500
11 | COc1ccc2c(c1)[C@@H]1C[C@]1(C(=O)N1CCN3CCC[C@@H]3C1)Cn1c-2c(C2CCCCC2)c2ccc(C(=O)NS(=O)(=O)N(C)C)cc21 | 4.58 to 500 | 4.58 to 500
12 | COc1ccc2c(c1)C1CC1(C(=O)N1CCN3CCC[C@@H]3C1)Cn1c-2c(C2CCCCC2)c2ccc(C(=O)NS(=O)(=O)N3CCC3)cc21 (some centres unmarked) | 4.58 to 500 | 4.58 to 500
13 | COc1ccc2c(c1)C1CC1(C(=O)N1CCN3CCC[C@@H]3C1)Cn1c-2c(C2CCCCC2)c2ccc(C(=O)NS(=O)(=O)C3CC3)cc21 (some centres unmarked) | 4.58 to 500 | 4.58 to 500
